From US4348393A, “N-Aryl oxazolidinones, oxazolidinethiones, pyrrolidinones, pyrrolidines and thiazolidinones” (Delalande S.A., priority 1978, dated 1982)
Read-outs that look alike come from different tables or passages of the source.

Experiments:
[1] = system: ptosis observed one hour after reserpine; experiment: Test B: antagonism of reserpine-induced ptosis in mice; assay type: in vivo; conditions: Mus musculus, 1 h, po, antagonism of ptosis one hour after reserpine 2 mg/kg intravenous, read-out: Test B ED 50
Experimental: Test B: Antagonism with respect to the ptosis observed one hour after an intravenous injection (2 mg/kg) of reserpine given to mice, following the protocol described by C.

Toxicity LD50 mouse = conditions: in vivo, po, read-out: Toxicity LD 50
[2] = system: generalized trembling caused by dl-5-hydroxytryptophane; experiment: Test A: potentiation in mice of generalized trembling caused by dl-5-hydroxytryptophane; assay type: in vivo; conditions: Mus musculus, po, read-out: Test A ED 50
Experimental: Test A: Potentiation in mice of generalized trembling caused by an interperitoneal injection (200 mg/kg) of dl-5-hydroxytryptophane, following the protocol described by C. GOURET and G. RAYNAUD in J. Pharmacol. (Paris), (1974), 5, 231.

[3] = mice, potentiation of trembling by dl-5-hydroxytryptophane 200 mg/kg interperitoneal

Row | Structure (SMILES) | ED50 [1] [mg/kg] | LD50 (Toxicity LD50 mouse) [mg/kg] | ED50 [2, 3] [mg/kg] | ED50 [2] [mg/kg]
1 | CC(=O)OCC1CN(c2ccc(OCCC#N)cc2)C(=O)O1 (centres unmarked) [compound 3] | 2.7 | > 2000 | 3.1 | –
2 | CC(=O)OCC1CN(c2ccc(OCC3CCCC3)cc2)C(=O)O1 (centres unmarked) [compound 13] | 2 | > 2000 | 3 | –
3 | CCC(=O)OCC1CN(c2ccc(OCc3ccccc3)cc2)C(=O)O1 (centres unmarked) [compound 24] | 12.5 | > 2000 | 9 | –
4 | COCC1CN(c2ccc(OCC3CCCC3)cc2)C(=O)O1 (centres unmarked) [compound 49] | 0.4 | 2000 | 0.5 | –
5 | COCC1CN(c2ccc(OCCC#N)cc2)C(=O)O1 (centres unmarked) [compound 52] | – | > 2000 | 1.2 | –
6 | COCC1CN(c2ccc(OCc3cccc([N+](=O)[O-])c3)cc2)C(=O)O1 (centres unmarked) [compound 61, para (meta-nitrobenzyloxy) phenyl-3 methoxymethyl-5 oxazolidinone-2] | 0.1 | 1500 | 0.08 | –
7 | CNCC1CN(c2ccc(OCC3CCCC3)cc2)C(=O)O1 (centres unmarked) [compound 77] | 6.2 | > 2000 | 2.5 | –
8 | CNCC1CN(c2ccc(OCc3cccc([N+](=O)[O-])c3)cc2)C(=O)O1 (centres unmarked) [compound 85] | 2 | 1000 | 3 | –
9 | CC(C)CCOc1ccc(N2CC(CO)OC2=S)cc1 (centres unmarked) [compound 91] | 5.5 | > 2000 | – | 4.5
10 | O=[N+]([O-])c1cccc(COc2ccc(N3CC(CO)OC3=S)cc2)c1 (centres unmarked) [compound 94] | 1 | > 2000 | 1.5 | –
11 | O=C1CC(CO)CN1c1ccc(OCc2cccc([N+](=O)[O-])c2)cc1 (centres unmarked) [compound 99] | 30 | > 2000 | 50 | –
12 | COCC1CN(c2ccc(OCC3CCCCC3)cc2)C(=S)O1 (centres unmarked) [compound 114] | 2 | > 2000 | 3.7 | –
13 | COCC1CN(c2ccc(OCc3cccc([N+](=O)[O-])c3)cc2)C(=S)O1 (centres unmarked) [compound 118] | 0.1 | > 2000 | 1 | –
14 | CC(=O)OCC1CN(c2ccc(OCCC(C)C)cc2)C(=O)O1 (centres unmarked) [compound 123] | 1.4 | > 2000 | 2 | –
15 | CCC(=O)OCC1CN(c2ccc(OCc3cccc(C#N)c3)cc2)C(=O)O1 (centres unmarked) [compound 132] | 2 | > 2000 | 3 | –
16 | COCC1CN(c2ccc(OCc3cc(C#N)cc([N+](=O)[O-])c3)cc2)C(=O)O1 (centres unmarked) [compound 161] | 0.36 | > 2000 | 1.1 | –

Row | Structure (SMILES) | ED50 [1] [mg/kg] | LD50 (Toxicity LD50 mouse) [mg/kg] | ED50 [2, 3] [mg/kg] | ED50 [2] [mg/kg]
17 | COCC1CN(c2ccc(OCc3ccc([N+](=O)[O-])cc3)cc2)C(=O)O1 (centres unmarked) [compound 165] | 4.7 | – | 6.8 | –
18 | COCC1CN(c2ccc(OCc3cc(Cl)cc(Cl)c3)cc2)C(=O)O1 (centres unmarked) [compound 166] | 3.4 | – | 3.8 | –
19 | CCOCC1CN(c2ccc(OCc3cccc(C#N)c3)cc2)C(=O)O1 (centres unmarked) [compound 167] | 3 | – | 3.7 | –
20 | COCC1CN(c2ccc(OCc3ccc([N+](=O)[O-])c(Cl)c3)cc2)C(=O)O1 (centres unmarked) [compound 168] | 16 | > 1000 | 25 | –
21 | COCC1CN(c2ccc(OCc3ccc(F)c([N+](=O)[O-])c3)cc2)C(=O)O1 (centres unmarked) [compound 169] | 4.1 | > 1000 | 3 | –
22 | CCCCOc1ccc(N2CC(CN)OC2=O)cc1 (centres unmarked) [compound 170] | 16 | – | 12.5 | –
23 | CN(C)CC1CN(c2ccc(OCCC#N)cc2)C(=O)O1 (centres unmarked) [compound 171] | 25 | – | 19.5 | –
24 | CC(C)CCOc1ccc(N2CC(CN)OC2=O)cc1 (centres unmarked) [compound 174] | 3.5 | – | 3 | –
25 | CNCC1CN(c2ccc(OCc3ccc(F)cc3)cc2)C(=O)O1 (centres unmarked) [compound 175] | 9.6 | – | 5.8 | –
26 | NCC1CN(c2ccc(OCc3ccc(F)cc3)cc2)C(=O)O1 (centres unmarked) [compound 176] | 4 | – | 4 | –
27 | OCC1CN(c2ccc(OCc3cccc(F)c3)cc2)C(=S)O1 (centres unmarked) [compound 177] | 15.5 | – | 8 | –
28 | O=C(COc1ccccc1)OCC1CN(c2ccc(OCc3cccc([N+](=O)[O-])c3)cc2)C(=O)O1 (centres unmarked) [compound 178] | 28 | > 1000 | 33 | –
29 | CC=CCOc1ccc(N2CC(COC)OC2=O)cc1 (centres unmarked) [compound 179] | 7 | > 1000 | – | 4.5
30 | COCC1CN(c2ccc(N(C)C)cc2)C(=O)O1 (centres unmarked) [compound 180] | 7.8 | 1000 | 7.4 | –
31 | COCC1CN(c2ccc(OCCN3CCOCC3)cc2)C(=O)O1 (centres unmarked) [compound 181] | 9 | > 1000 | 4 | –
